This note sets out measurements from US8716475B2, “2-aminopyrimidine modulators of the histamine H4 receptor” (Janssen Pharmaceutica NV, priority 2007, dated 2014).

Each structure is given as a SMILES string.

T1 sequence (Q9H3N8 whole entry): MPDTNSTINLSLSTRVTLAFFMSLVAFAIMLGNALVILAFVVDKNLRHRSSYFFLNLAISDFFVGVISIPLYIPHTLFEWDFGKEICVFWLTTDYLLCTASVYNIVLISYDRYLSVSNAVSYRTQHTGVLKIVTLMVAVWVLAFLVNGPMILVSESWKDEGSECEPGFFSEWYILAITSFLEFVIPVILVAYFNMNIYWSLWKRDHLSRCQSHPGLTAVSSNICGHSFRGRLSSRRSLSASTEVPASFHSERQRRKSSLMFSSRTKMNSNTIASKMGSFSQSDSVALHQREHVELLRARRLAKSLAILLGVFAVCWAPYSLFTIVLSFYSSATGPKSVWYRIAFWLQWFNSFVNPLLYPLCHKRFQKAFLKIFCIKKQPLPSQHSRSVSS

The first test addresses T1, human H4 receptor (Homo sapiens, UniProt Q9H3N8).
T1 construct: expressed in transfected cells
The test can be described thus: Binding Assay on Recombinant Human Histamine H4 Receptor. To be noted: Table 1; [3H] histamine competition binding, membranes of SK-N-MC cells transfected with human H4 receptor; average of results. The method, boiled down:
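Radioligand binding used membranes from SK-N-MC cells stably or transiently expressing human H4, prepared in 50 mM Tris/5 mM EDTA. Nonspecific binding was defined with 100 μM histamine. Bound radioactivity was counted after filtration on PEI-treated GF/C filters, and ">" values are the highest concentration tested.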
Take `Cc1nc(N)nc(N2CC3CCCNC3C2)c1C` (stereo not drawn) [Example 31, 4,5-Dimethyl-6-(cis-octahydro-pyrrolo[3,4-b]pyridin-6-yl)-pyrimidin-2-ylamine]: the Ki (usually a measure of affinity in units of concentration, obtained from inhibition or displacement) came to 249 nM.

With `Nc1nc(C2CCCC2)cc(N2CCNCC2)n1` [Example 1, 4-Cyclopentyl-6-piperazin-1-yl-pyrimidin-2-ylamine], the Ki was found to be 1 nM.

Regarding `CN[C@@H]1CCN(c2cc(C3CCCCC3)nc(N)n2)C1` [Example 53, (R)-(4-Cyclohexyl-6-3-methylamino-pyrrolidin-1-yl)-pyrimidin-2-ylamine], the Ki amounted to 3 nM.

Consider `CN1CCN(c2cc(Cc3ccccc3)nc(N)n2)CC1` [Example 63, 4-Benzyl-6-(4-methyl-piperazin-1-yl)-pyrimidin-2-ylamine], for which the Ki came out at 21 nM.

As to `Cc1cc(N2CCNCC2)nc(N)n1` [Example 21, 4-Methyl-6-piperazin-1-yl-pyrimidin-2-ylamine], the Ki is 29 nM.

`Nc1nc(C2CCOCC2)cc(N2C[C@H]3CCCN[C@H]3C2)n1` [Example 61, (R,R)-4-(Octahydro-pyrrolo[3,4-b]pyridin-6-yl)-6-(tetrahydro-pyran-4-yl)-pyrimidin-2-ylamine]: the Ki worked out at 24 nM.

As to `CN[C@@H]1CCN(c2cc(C3CCCC3)nc(N)n2)C1` [Example 4, (R)-4-Cyclopentyl-6-(3-methylamino-pyrrolidin-1-yl)-pyrimidin-2-ylamine], the Ki is 1 nM.

As to `Nc1nc(C2CCCC2)cc(N2CC3CCCNC3C2)n1` (stereo not drawn) [Example 7, 4-Cyclopentyl-6-(cis-octahydro-pyrrolo[3,4-b]pyridin-6-yl)-pyrimidin-2-ylamine], the Ki turned out to be 2 nM.

Take `CN1CCN(c2nc(N)nc3c2CCC3)CC1` [Example 74, 4-(4-Methyl-piperazin-1-yl)-6,7-dihydro-5H-cyclopentapyrimidin-2-ylamine]: the Ki was found to be 76 nM.

The same test, now with this note: Table 2, data marked with an asterisk (*): obtained by the cell harvester method; [3H] histamine competition binding, SK-N-MC membranes.
As to `CCCCc1nc(N)nc(N2CC(N)C2)c1OC` [Example 103, 4-(3-Amino-azetidin-1-yl)-6-butyl-5-methoxy-pyrimidin-2-ylamine], the Ki amounted to 22 nM.

On to `CC(C)(C)c1cc(N2C[C@H]3CNC[C@H]3C2)nc(N)n1` [Example 132, 4-tert-Butyl-6-(cis-hexahydro-pyrrolo[3,4-c]pyrrol-2-yl)-pyrimidin-2-ylamine], for which the Ki was 356 nM.

For the molecule `CC(C)c1cc(N2CCN(C)CC2)nc(N)n1` [Example 95, 4-Isopropyl-6-(4-methyl-piperazin-1-yl)-pyrimidin-2-ylamine], the Ki came to 8 nM.

`CN(CCN)c1cc(C(C)(C)C)nc(N)n1` [Example 131, N^4-(2-Amino-ethyl)-6-tert-butyl-N^4-methyl-pyrimidine-2,4-diamine]: the Ki was 412 nM.

Still in this test, the particulars now being: Table 2; [3H] histamine competition binding, membranes of SK-N-MC cells transfected with human H4 receptor; average of results.
In the case of `CN1CCN(c2cc(Cc3ccncc3)nc(N)n2)CC1` [Example 206, 4-(4-Methyl-piperazin-1-yl)-6-pyridin-4-ylmethyl-pyrimidin-2-ylamine], the Ki stood at 81 nM.

As to `Nc1nc(Cc2cccs2)cc(N2CCNCC2)n1` [Example 215, 4-piperazin-1-yl-6-thiophen-2-ylmethyl-pyrimidin-2-ylamine], the Ki is 6 nM.

In the case of `Nc1nc(C2CCCC2)cc(N2CC3CNCC3C2)n1` (stereo not shown) [Example 87, 4-Cyclopentyl-6-(hexahydro-pyrrolo[3,4-c]pyrrol-2-yl)-pyrimidin-2-ylamine], the Ki is 328 nM.

For `COc1c(C2CCCC2)nc(N)nc1N1CC[C@@H](N)C1` [Example 113, (R)-4-(3-Amino-pyrrolidin-1-yl)-6-cyclopentyl-5-methoxy-pyrimidin-2-ylamine], the Ki worked out at 136 nM.

On to `Cc1nc(N)nc(N2CCN(C)CC2)c1F` [Example 199, 5-Fluoro-4-methyl-6-(4-methyl-piperazin-1-yl)-pyrimidin-2-ylamine], for which the Ki was found to be 69 nM.

Regarding `CN[C@@H]1CCN(c2cc(Cc3cccs3)nc(N)n2)C1` [Example 214, (R)-4-(3-Methylamino-pyrrolidin-1-yl)-6-thiophen-2-ylmethyl-pyrimidin-2-ylamine], the Ki was determined as 19 nM.

Regarding `CN1CCN(c2cc(CCC(F)(F)F)nc(N)n2)CC1` [Example 181, 4-(4-Methyl-piperazin-1-yl)-6-(3,3,3-trifluoro-propyl)-pyrimidin-2-ylamine], the Ki was 8 nM.

Turning to `CC(C)c1cc(N2CC(N)C2)nc(N)n1` [Example 90, 4-(3-Amino-azetidin-1-yl)-6-isopropyl-pyrimidin-2-ylamine], the Ki came to 14 nM.

Consider `CCOCc1cc(N2CC[C@@H](NC)C2)nc(N)n1` [Example 241, (R)-Ethoxymethyl-6-(3-methylamino-pyrrolidin-1-yl)-pyrimidin-2-ylamine], for which the Ki was 31 nM.

Turning to `CN[C@H]1CCN(c2cc(COC)nc(N)n2)C1` [Example 119, (S)-4-Methoxymethyl-6-(3-methylamino-pyrrolidin-1-yl)-pyrimidin-2-ylamine], the Ki was 153 nM.

Turning to `Nc1nc(C2CC2)cc(N2CC(N)C2)n1` [Example 122, 4-(3-Amino-azetidin-1-yl)-6-cyclopropyl-pyrimidin-2-ylamine], the Ki came out at 22 nM.

Take `CCCCc1cc(N2C[C@H]3CNC[C@H]3C2)nc(N)n1` [Example 140, Butyl-6-(cis-hexahydro-pyrrolo[3,4-c]pyrrol-2-yl)-pyrimidin-2-ylamine]: the Ki was 397 nM.

With `CN[C@@H]1CCN(c2cc(Cc3ccsc3)nc(N)n2)C1` [Example 208, (R)-4-(3-Methylamino-pyrrolidin-1-yl)-6-thiophen-3-ylmethyl-pyrimidin-2-ylamine], the Ki was found to be 8 nM.

For `CN[C@@H]1CCN(c2cc(CCC(F)(F)F)nc(N)n2)C1` [Example 183, (R)-4-(3-Methylamino-pyrrolidin-1-yl)-6-(3,3,3-trifluoro-propyl)-pyrimidin-2-ylamine], the Ki was 16 nM.

Take `CCOCc1cc(N2CCN(C)CC2)nc(N)n1` [Example 239, 4-Ethyoxymethyl-6-(4-methyl-piperazin-1-yl)-pyrimidin-2-ylamine]: the Ki is 29 nM.

With `CN1CCN(c2cc(CC3CCCO3)nc(N)n2)CC1` (stereo not shown) [Example 227, 4-(4-Methyl-piperazin-1-yl)-6-(tetrahydro-furan-2-ylmethyl)-pyrimidin-2-ylamine], the Ki turned out to be 17 nM.

In the case of `Nc1nc(C2CCCC2)cc(N2C[C@H]3CCCN[C@H]3C2)n1` [Example 81, (R,R)-4-Cyclopentyl-6-(octahydro-pyrrolo[3,4-b]pyridin-6-yl)-pyrimidin-2-ylamine], the Ki is 2 nM.

Regarding `Nc1nc(C2CCOC2)cc(N2CCNCC2)n1` (single isomer, unassigned; (-)) [Example 193, (−)-4-piperazin-1-yl-6-(tetrahydro-furan-3-yl)-pyrimidin-2-ylamine], the Ki stood at 31 nM.

Turning to `Nc1nc(Cc2ccc(Cl)cc2)cc(N2CCNCC2)n1` [Example 233, 4-(4-Chloro-benzyl)-6-piperazin-1-yl-pyrimidin-2-ylamine], the Ki turned out to be 12 nM.

`Nc1nc(C2CCCC2)cc(N2CC(N)C2)n1` [Example 85, 4-(3-Amino-azetidin-1-yl)-6-cyclopentyl-pyrimidin-2-ylamine]: the Ki came to 6 nM.

As for `Nc1nc(C2CC2c2ccccc2)cc(N2CCNCC2)n1` (stereo not drawn) [Example 156, 4-(trans-2-Phenyl-cyclopropyl)-6-piperazin-1-yl-pyrimidin-2-ylamine], the Ki is 12 nM.
